Measurements from patent US20220356174A1, “PYRIDIN-2-ONE COMPOUNDS USEFUL AS SMARCA2 ANTAGONISTS” (Epizyme, Inc., priority 2018, published 2022).
Where two headings read alike, the source gives them in different places.

What was measured:
FL-SMARCA4 = FL-SMARCA4 (Homo sapiens, UniProt P51532); assay: SMARCA4 ATPase activity assay (ADP-Glo, chicken mononucleosome substrate)
[1] = target: T1, FL-SMARCA2 (full-length human SMARCA2 isoform 1) (Homo sapiens, UniProt P51531); assay: SMARCA2 ATPase activity assay (ADP-Glo, chicken mononucleosome substrate); type: biochemical; conditions: ATP 250 uM
T1 construct: FLAG tag (YKDDDDK) (C); made in house; host or cells: Sf21 insect cells (baculovirus, pFastBacI)

[2] = FL-SMARCA4 IC50, Table 3a.2, SMARCA4 5 nM, ATP 250 uM, mononucleosome 10 nM
[3] = Table 3a.1, SMARCA2 5 nM, mononucleosome 10 nM
[4] = Table 3d.1, ATPase assay, enzyme 5 nM, chicken mononucleosome 10 nM, 30 min preincubation, read-out: FL-SMARCA2 IC>50
[5] = FL-SMARCA4 IC>50, Table 3c.2, ATPase assay, enzyme 5 nM, ATP 250 uM, chicken mononucleosome 10 nM, 30 min preincubation
[6] = Table 3c.1, ATPase assay, enzyme 5 nM, chicken mononucleosome 10 nM, 30 min preincubation
[7] = FL-SMARCA4 IC50, Table 3.2, ATPase assay, enzyme 5 nM, ATP 250 uM, chicken mononucleosome 10 nM, 30 min preincubation
[8] = Table 3.1, ATPase assay, enzyme 5 nM, chicken mononucleosome 10 nM, 30 min preincubation

FL-SMARCA4, sequence (P51532 whole entry, canonical isoform): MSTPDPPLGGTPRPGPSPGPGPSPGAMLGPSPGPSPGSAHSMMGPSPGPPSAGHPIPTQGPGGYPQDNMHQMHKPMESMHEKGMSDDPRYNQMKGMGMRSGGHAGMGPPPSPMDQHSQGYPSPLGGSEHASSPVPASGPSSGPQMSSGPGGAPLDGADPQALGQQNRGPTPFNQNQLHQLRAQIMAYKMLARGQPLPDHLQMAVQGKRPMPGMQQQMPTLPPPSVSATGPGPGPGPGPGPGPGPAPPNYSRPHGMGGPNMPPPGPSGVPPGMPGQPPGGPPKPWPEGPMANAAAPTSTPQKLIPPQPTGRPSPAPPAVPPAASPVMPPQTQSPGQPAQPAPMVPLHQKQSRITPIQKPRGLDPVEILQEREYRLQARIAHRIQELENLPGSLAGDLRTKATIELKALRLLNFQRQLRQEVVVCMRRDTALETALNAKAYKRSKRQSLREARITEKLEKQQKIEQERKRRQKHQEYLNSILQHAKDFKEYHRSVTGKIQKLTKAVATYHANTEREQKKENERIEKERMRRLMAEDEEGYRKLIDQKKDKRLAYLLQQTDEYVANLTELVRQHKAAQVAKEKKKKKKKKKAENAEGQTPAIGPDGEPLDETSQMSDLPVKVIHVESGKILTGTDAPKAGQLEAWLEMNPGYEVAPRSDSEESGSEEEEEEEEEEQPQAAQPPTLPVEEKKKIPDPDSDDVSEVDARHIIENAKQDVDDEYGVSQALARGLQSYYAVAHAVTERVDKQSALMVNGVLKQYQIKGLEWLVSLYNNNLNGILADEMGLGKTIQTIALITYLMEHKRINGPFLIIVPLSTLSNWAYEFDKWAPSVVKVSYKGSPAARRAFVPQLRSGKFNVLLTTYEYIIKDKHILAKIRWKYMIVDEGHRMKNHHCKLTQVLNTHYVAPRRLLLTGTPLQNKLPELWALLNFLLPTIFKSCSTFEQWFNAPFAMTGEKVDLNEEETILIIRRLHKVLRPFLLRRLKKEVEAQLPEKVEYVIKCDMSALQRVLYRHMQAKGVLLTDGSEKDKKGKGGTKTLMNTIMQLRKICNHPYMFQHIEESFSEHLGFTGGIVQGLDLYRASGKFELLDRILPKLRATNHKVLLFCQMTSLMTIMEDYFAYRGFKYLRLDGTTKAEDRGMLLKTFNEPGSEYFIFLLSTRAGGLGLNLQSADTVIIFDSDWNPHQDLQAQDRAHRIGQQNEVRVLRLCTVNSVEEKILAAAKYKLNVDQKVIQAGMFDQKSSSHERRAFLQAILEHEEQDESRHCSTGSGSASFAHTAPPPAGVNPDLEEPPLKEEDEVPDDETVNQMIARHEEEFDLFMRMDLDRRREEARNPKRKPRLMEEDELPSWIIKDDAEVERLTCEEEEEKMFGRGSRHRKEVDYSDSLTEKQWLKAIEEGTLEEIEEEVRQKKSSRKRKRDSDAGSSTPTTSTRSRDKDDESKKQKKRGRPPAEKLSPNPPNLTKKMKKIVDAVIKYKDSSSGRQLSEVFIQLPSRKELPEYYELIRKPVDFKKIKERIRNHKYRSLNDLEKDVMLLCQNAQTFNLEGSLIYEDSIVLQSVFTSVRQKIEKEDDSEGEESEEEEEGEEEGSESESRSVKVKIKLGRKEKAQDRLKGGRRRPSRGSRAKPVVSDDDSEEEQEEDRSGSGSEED
T1 sequence (P51531 with tags, fused parts or gaps): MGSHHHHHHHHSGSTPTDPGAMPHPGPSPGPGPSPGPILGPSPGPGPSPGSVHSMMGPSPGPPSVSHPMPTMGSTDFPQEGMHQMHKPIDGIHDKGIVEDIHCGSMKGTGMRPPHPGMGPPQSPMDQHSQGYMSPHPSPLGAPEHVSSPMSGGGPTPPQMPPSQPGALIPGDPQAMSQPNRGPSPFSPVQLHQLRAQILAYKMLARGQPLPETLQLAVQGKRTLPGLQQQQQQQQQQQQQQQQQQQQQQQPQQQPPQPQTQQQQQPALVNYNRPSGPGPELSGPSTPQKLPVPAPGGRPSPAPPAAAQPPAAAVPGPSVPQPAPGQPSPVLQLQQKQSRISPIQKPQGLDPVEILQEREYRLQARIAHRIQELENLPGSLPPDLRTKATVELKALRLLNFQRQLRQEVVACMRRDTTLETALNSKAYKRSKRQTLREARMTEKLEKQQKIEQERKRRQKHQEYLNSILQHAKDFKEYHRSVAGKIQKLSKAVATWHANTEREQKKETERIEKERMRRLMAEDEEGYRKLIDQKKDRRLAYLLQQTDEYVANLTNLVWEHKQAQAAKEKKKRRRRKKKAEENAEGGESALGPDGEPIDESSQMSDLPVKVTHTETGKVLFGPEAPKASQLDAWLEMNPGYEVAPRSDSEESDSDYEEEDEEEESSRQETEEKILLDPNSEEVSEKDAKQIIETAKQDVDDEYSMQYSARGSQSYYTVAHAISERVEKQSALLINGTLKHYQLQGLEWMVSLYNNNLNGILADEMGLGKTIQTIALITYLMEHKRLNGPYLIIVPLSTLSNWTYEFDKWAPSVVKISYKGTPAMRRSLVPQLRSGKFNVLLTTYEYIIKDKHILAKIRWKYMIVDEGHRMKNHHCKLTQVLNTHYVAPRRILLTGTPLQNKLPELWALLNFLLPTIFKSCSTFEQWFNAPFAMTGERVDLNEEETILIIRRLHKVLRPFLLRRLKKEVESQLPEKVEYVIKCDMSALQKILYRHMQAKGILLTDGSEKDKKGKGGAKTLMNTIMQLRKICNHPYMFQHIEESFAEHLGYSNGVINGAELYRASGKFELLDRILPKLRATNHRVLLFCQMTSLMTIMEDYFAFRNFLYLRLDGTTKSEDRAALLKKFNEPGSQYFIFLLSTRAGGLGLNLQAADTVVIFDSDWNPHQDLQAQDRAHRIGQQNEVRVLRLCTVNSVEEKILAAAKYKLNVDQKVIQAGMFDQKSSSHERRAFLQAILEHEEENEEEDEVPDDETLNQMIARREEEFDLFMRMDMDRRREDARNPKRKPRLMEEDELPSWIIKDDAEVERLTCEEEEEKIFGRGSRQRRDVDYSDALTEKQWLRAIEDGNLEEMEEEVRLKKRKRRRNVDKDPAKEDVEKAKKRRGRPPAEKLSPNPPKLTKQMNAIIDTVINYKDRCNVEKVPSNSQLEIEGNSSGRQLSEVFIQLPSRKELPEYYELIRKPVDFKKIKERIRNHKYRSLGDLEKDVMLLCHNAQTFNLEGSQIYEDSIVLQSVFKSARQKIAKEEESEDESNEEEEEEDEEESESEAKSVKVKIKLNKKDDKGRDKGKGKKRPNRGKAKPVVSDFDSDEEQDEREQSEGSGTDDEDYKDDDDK

IC50 (FL-SMARCA4; [2]) [µM]	IC50 [1, 3] [µM]	IC50 (FL-SMARCA4; FL-SMARCA4 IC50) [µM]	IC50 [1, 4] [µM]	Structure (SMILES)	also measured
> 50	> 50			O=C(Nc1ccc(=O)n(CC(F)(F)F)c1)c1nc2cc(F)c(Cl)cc2[nH]1 [Compound 41a]	
		> 50	> 50	COc1ncc(F)cc1C(=O)Nc1cc(F)c(=O)n(CC(F)F)c1 [Compound 41d]	
> 50	13.2			CCn1cc(NC(=O)c2nc3cc(Cl)c(Cl)cc3[nH]2)ccc1=O [Compound 42a]	
		> 50	27.6	COc1ncc(C(=O)Nc2cc(F)c(=O)n(CC(F)F)c2)cc1F [Compound 42d]	
> 50	> 50			O=C(Nc1ccc(=O)n(CC(F)(F)F)c1)c1nc2cc(Cl)c(Cl)cc2[nH]1 [Compound 43a]	
		> 50	> 50	N#Cc1nc(C(=O)Nc2cc(F)c(=O)n(CC(F)F)c2)co1 [Compound 43d]	
> 50	42.5			O=C(Nc1ccc(=O)n(CC(F)(F)F)c1)c1nc2cc(F)c(Cl)cc2s1 [Compound 44a]	
		> 50	29.5	O=C(Nc1cc(F)c(=O)n(CC(F)F)c1)c1cc(Cl)on1 [Compound 44d]	
> 50	> 50			CCn1cc(NC(=O)c2cn3cc(Cl)c(F)cc3n2)ccc1=O [Compound 45a]	
		> 50	> 50	CN(C)CC#Cc1cc(NC(=O)c2cc(F)c(Cl)s2)cn(CC(F)F)c1=O [Compound 45d]	
41.1	42.7			CCn1cc(NC(=O)c2nc3cc(F)c(Cl)cc3s2)ccc1=O [Compound 46a]	
		> 50	> 50	COc1c(C(=O)Nc2cc(F)c(=O)n(CC(F)F)c2)sc(Cl)c1Cl [Compound 46d]	
> 50	> 50			CN1CCC(C(=O)Nc2cc(F)c(=O)n(CCF)c2)CC1=O (stereo not shown) [Compound 47a]	
		> 50	25.1	O=C(Nc1cc(F)c(=O)n(CC(F)F)c1)c1cc(C(O)C(F)(F)F)c(Cl)s1 (stereo not shown) [Compound 47d]	
> 50	> 50			CN1C(=O)CCCC1C(=O)Nc1cc(F)c(=O)n(CCF)c1 (stereo not shown) [Compound 48a]	
		> 50	> 50	Cn1cnc2cc(C(=O)Nc3cc(F)c(=O)n(CCF)c3)[nH]c2c1=O [Compound 48d]	
> 50	> 50			CN1CC(C(=O)Nc2cc(F)c(=O)n(CCF)c2)CCC1=O (stereo not shown) [Compound 49a]	
		> 50	> 50	O=C(Nc1cc(F)c(=O)n(CC(F)F)c1)c1sc(Cl)c(Cl)c1O [Compound 49d]	
> 50	> 50			CN1C(=O)CCC1C(=O)Nc1cc(F)c(=O)n(CCF)c1 (stereo not shown) [Compound 50a]	

Continued, compound first:

Structure (SMILES)	IC50 (FL-SMARCA4; [2]) [µM]	IC50 [1, 3] [µM]	IC50 (FL-SMARCA4; FL-SMARCA4 IC50) [µM]	IC50 [1, 4] [µM]	also measured
CCn1cc(NC(=O)c2ccc3c(n2)OCO3)ccc1=O [Compound 37a]	> 50	> 50			
O=C(Nc1cc(F)c(=O)n(CC(F)F)c1)c1coc(Cl)n1 [Compound 37d]			> 50	> 50	
CCn1cc(NC(=O)c2ccc3cn[nH]c3n2)ccc1=O [Compound 38a]	> 50	> 50			
Cn1cncc1-c1cc(NC(=O)c2sc(C(F)(F)F)cc2Cl)cn(CC(F)F)c1=O [Compound 38c]					IC50 (FL-SMARCA4; [5]): > 50 µM; IC50 [1, 6]: > 50 µM
O=C(Nc1cc(F)c(=O)n(CC(F)F)c1)c1n[nH]c(Cl)n1 [Compound 38d]			> 50	> 50	
CCn1cc(NC(=O)n2cc3ccccc3n2)ccc1=O [Compound 39a]	> 50	> 50			
O=C(Nc1cc(F)c(=O)n(CC(F)F)c1)c1nc(Cl)c(Cl)[nH]1 [Compound 39d]			> 50	> 50	
CCn1cc(NC(=O)c2ccc(Cl)s2)ccc1=O [Compound 40]					IC50 (FL-SMARCA4; [7]): 11.6 µM; IC50 [1, 8]: 2.63 µM
CCn1cc(NC(=O)c2sc3ccccc3c2C)ccc1=O [Compound 40a]	> 50	> 50			
COc1cc(Cl)c(Cl)cc1C(=O)Nc1cc(F)c(=O)n(CC(F)F)c1 [Compound 40d]			> 50	> 50	
CCn1cc(NC(=O)c2cc(Cl)cs2)ccc1=O [Compound 44]					IC50 (FL-SMARCA4; [7]): > 50 µM; IC50 [1, 8]: > 50 µM
COc1ccc(C#Cc2cc(C(=O)Nc3cc(F)c(=O)n(CC(F)F)c3)sc2Cl)cc1 [Compound 44c]					IC50 (FL-SMARCA4; [5]): 2.19 µM; IC50 [1, 6]: 1.04 µM
O=C(Nc1ccc(=O)n(CC(F)F)c1)c1sc(C(F)(F)F)cc1Cl [Compound 46c]					IC50 (FL-SMARCA4; [5]): > 50 µM; IC50 [1, 6]: > 50 µM
CCn1cc(NC(=O)c2ccc(I)n2C)ccc1=O [Compound 48]					IC50 (FL-SMARCA4; [7]): > 50 µM; IC50 [1, 8]: 14.1 µM
O=C(Nc1cc(F)c(=O)n(CC(F)F)c1)c1cc(C2COC2)c(Cl)s1 [Compound 49c]					IC50 (FL-SMARCA4; [5]): 16.8 µM; IC50 [1, 6]: 16.8 µM
O=C(Nc1cc(F)c(=O)n(CC(F)CO)c1)c1cc(Cl)c(Cl)s1 (stereo not shown) [Compound 50c]					IC50 (FL-SMARCA4; [5]): 22.1 µM; IC50 [1, 6]: 2.61 µM
